Data published in patent US11591596B2, “Compounds and compositions including phosphorothioated oligodeoxynucleotide, and methods of use thereof” (City of Hope, priority 2015, dated 2023).

How the values were obtained:
[1] = test system: Normal, cord blood, AML and CML CD34+ cells; assay: Uptake of CpG-anti-miR126 inhibitor-Cy3 in primary CD34+ cells, Cy3 by flow cytometry; format: cell-based, human; settings: 500 nM; primary patients' AML and CML CD34+ cells
Description: FIGS. 2A-2D are flow cytometry histograms showing results of uptake tests in normal, cord blood, acute myeloid leukemia (AML), and chronic myeloid leukemia (CML) CD34+ cells. Normal (NL), cord blood (CB), AML and CML34+ cells were cultured with CpG-scramble RNA (500 nM) and CpG-miR126 inhibitor-Cy3 (500 nm) for 16 hours. FIG. 2A is a histogram showing uptake in NL/CB cells with 600 CpG siRNA. FIG. 2B is a histogram showing NL/CB cells with 500 CpG-siRNA. FIG. 2C is a histogram showing uptake in AML cells. FIG. 2D is a histogram showing uptake in CML cells. Uptake was measured by Cy3 expression in these cells by flow cytometry.
Normal, cord blood, AML and CML CD34+ cells were cultured with CpG-anti-miR126 inhibitor-Cy3 or anti-miR126 inhibitor-Cy3 for 16 hours, and the uptake was measured by Cy3 expression in the cells by flow cytometry (FIGS. 2A-2D). All tested cells internalized CpG-anti-miR126-Cy3 but not the anti-miR126-Cy3 with high efficiency.
(§1) Normal, cord blood, AML and CML CD34+ cells were cultured with CpG-scramble RNA (500 nM) and CpG-anti-miR126 inhibitor-Cy3 (500 nM) for 24 hours, and then miR126 and RNU44 (ctrl) expression in these cells were analyzed by Q-RT-PCR (FIG. 5). The miR126 expression levels were normalized to RNU44 and calculated by using the comparative 2^−ΔΔCt method.

miR126 [2] = assay: miRNA126 expression in NL/CB, AML and CML CD34+ cells by Q-RT-PCR; format: cell-based, human; settings: 500 nM, 24 hours; primary patients' AML and CML CD34+ cells
Description: FIG. 5 is a bar graph showing the expression of miRNA 126 in NL/CB, AML and CML CD34+ cells. Normal, cord blood, AML and CML CD34+ cells were cultured with CpG-scramble RNA (500 nM) and CpG-miR 126 inhibitor-Cy3 (500 nM) for 24 hours. miR126 and RNU44 (control) expression was analyzed by q-RT-PCR. The miR126 expression levels were normalized to RNU44 and calculated by using the comparative 2^−ΔΔct method.
as §1

miR126 [3] = assay: miR126 expression in CML CD34+CD38+ committed and CD34+CD38- primitive progenitors by q-RT-PCR; format: cell-based, human; settings: 500 nM
Description: CML CD34+CD38+ committed and CD34+CD38− primitive progenitors were cultured with CpG-scramble RNA (500 nM) or CpG-miR126 inhibitor (500 nM) for 36 hours and then miR126 and RNU44 (control) expression in these cells were analyzed by q-RT-PCR. The miR126 expression levels were normalized to RNU44 and calculated by using the comparative 2^−ΔΔCt method.
(§2) CML CD34+, CD34+CD38+ committed and CD34+CD38− primitive progenitors were cultured with CpG-scramble RNA (500 nM), CpG-anti-miR126 inhibitor (500 nM), CpG-scramble RNA (500 nM)+Nilotinib (NIL, 5 uM), and CpG-anti-miR126 inhibitor (500 nM)+NIL (5 uM) for 72 hours and then cell cycling and apoptosis were analyzed by EDU/DAPi and Annexin V/DAPi staining.

[4] = test system: CML CD34+, CD34+CD38+ committed and CD34+CD38− primitive progenitors; assay: Apoptosis of CML progenitors by Annexin V/DAPI staining; format: cell-based, human; settings: 500 nM combined with NIL 5 uM, 72 hours, compared with CpG-scramble and NIL
Description: CML CD34+, CD34+CD38+ committed and CD34+CD38− primitive progenitors were cultured with CpG-scramble RNA (500 nM), CpG-miR126 inhibitor (500 nM), CpG-scramble RNA (500 nM)+Nilotinib (5 μM), and CpG-miR126 inhibitor (500 nM)+NIL (5 μM) for 72 hours and then apoptosis was analyzed by Annexin V/DAPI staining.
as §2

[5] = test system: normal and CML CD34+CD38− primitive progenitors; assay: Cell cycling of CD34+CD38- cells by EDU/DAPi staining; format: cell-based, human; settings: 500 nM, 72 hours
Description: FIGS. 9A-9D are a series of cell sorting plots showing increased cell cycle in CD34+CD38− cells after knockdown of […]. Normal (NL; FIGS. 9A-9B) and CML human CD34+CD38− cells (FIGS. 9C-9D) were sorted and then cultured with 500 nm CpG-miR126 inh-Cy3 or CpG-SCR control for 72 hours, and then cell cycling was analyzed by EDU/DAPi staining.
as §2

miR-126 = miR-126 expression in K562 and MV4-11 cells with miR-126 inhibitors or mimics; format: cell-based; settings: 500 nM, 24 hours
Description: FIGS. 26A-26E. Effective knockdown of miR-126 with miR-126 inhibitors conjugated with CpG, GpC and PS, and effective over-expression with miR-126 mimics in K562 and MV4-11 cells. K562 and MV4-11 cells were treated with miR-126 inhibitors conjugated with CpG, GpC, PS (FIGS. 26A-26B) or miR-126 mimics (615, 616 and 617) (FIGS. 26C-26D) (500 nM) for 24 hours, and miR-126 expression was measured in these cells. […] FIG. 26E) Tabulation of sequence set forth herein.
Effective knockdown of miR-126 with miR-126 inhibitors conjugated with CpG, GpC and PS, and effective over-expression with miR-126 mimics in K562 and MV4-11 cells. K562 and MV4-11 cells were treated with miR-126 inhibitors conjugated with CpG, GpC, PS (FIGS. 26A-26B) or miR-126 mimics (615, 616 and 617) (FIGS. 26C-26D) (500 nM) for 24 hours, and miR-126 expression was measured in these cells.

“5′ G*G*T GCA TCG ATG CAGG*G*G* G*G (SEQ ID NO: 1) xxxxx mCmGmC mAmUmU mAmUmU mAmCmU mCmAmC mGmGmU mAmCmG mA (SEQ ID NO: 17) 3′ [CpG-anti-miR126]” was tested, and the “internalization by primary cells” value [1] was “quickly internalized”, the “reduction of miR126 expression” value (miR126 [2]) was 60%-90% and the “reduction of miR126 expression” value (miR126 [3]) was “More than 90%”. The apoptosis [4] was “Increased apoptosis”, the cell cycling [5] was “Increased cell cycling” and the “miR-126 expression (knockdown by inhibitors)” value (miR-126) was “very effective in reducing miR-126”.
